Laboratory results published in US4792569A, “Anticonvulsant phenethyl sulfamates” (McNeilab, Inc., priority 1987, dated 1988).

System: tonic extensor seizure
Assay: maximal electroshock test (MES), block of tonic extensor seizure in mice
Assay type: in vivo, male albino mice of the Swiss Webster strain
Experimental: The compounds of formula (I) are useful as anticonvulsant agents. The anticonvulsant activity of the subject compounds was determined using a standard "maximal electroshock test" (MES). In this test, activity is indicated by a block of the tonic extensor seizure caused by application of an electric shock to mice via corneal electrodes, as described by Swinyard et al. in J. Pharmacol. Exptl. Therap. 106, 319 (1952). A more recent description of current anticonvulsant drug screening is given in Swinyard et al. in Epilepsia 19, 409 (1978). Non-fasted male albino mice of the Swiss Webster strain (Royal-Hart Laboratories, New Hampton, N.Y.) weighing 18-24 grams were used in this test. Six to eight groups of ten mice each were used per ED50 determination. The test compounds were administered as aqueous solutions or suspensions prepared with Tween 80 and water. Testing was conducted at 30 minutes following intraperitoneal injection and at 60 minutes following oral administration of the test compound. A group of ten mice injected with saline 10 ml/kg i.p. and tested 30 minutes later served as controls. ED50 's were calculated using a computerized probit analysis procedure.

Structure (SMILES) | MES Test % Inhibition (100 mg/kg, 30 min i.p.) | MES Test % Inhibition (200 mg/kg, 60 min p.o.) | MES Test % Inhibition (500 mg/kg i.p. in 30 min)
NS(=O)(=O)OCCc1ccccc1 [Example 1b, Phenethylsulfamate] | 90% | 100% | –
NS(=O)(=O)OCCc1cccc(C(F)(F)F)c1 [Example 2, 3-(Trifluoromethyl)phenethylsulfamate] | 70% | 100% | –
COc1ccc(CCOS(N)(=O)=O)cc1OC [Example 3, 3,4-Dimethoxyphenethyl sulfamate] | – | – | 30%
Cc1ccccc1CCOS(N)(=O)=O [Example 5, 2-Methylphenethyl sulfamate] | 90% | 70% | –
NS(=O)(=O)OCCc1cccc([N+](=O)[O-])c1 [Example 6, 3-Nitrophenethylsulfamate] | 80% | 40% | –
